# Earlier results in patent publication US20070142395A1, “Treatment of sexual dysfunction with 1-[3-[4-(3-chlorophenyl)-1-piperazinyl]propyl]-5-methoxy-3,4-dihydro-2(1H)-quinolone or salt thereof” (Vela Pharmaceuticals, Inc., priority 2005, published 2007).
# Conditions: SSRI/SNRI antidepressant therapy; Montejo et al. 2001; cited from earlier work
row,SMILES,incidence of sexual dysfunction as side effect
1,CN(C)CCCC1(c2ccc(F)cc2)OCc2cc(C#N)ccc21 (centres unmarked) [citalopram],72.7%
2,CNCCC(Oc1ccc(C(F)(F)F)cc1)c1ccccc1 (centres unmarked) [fluoxetine],57.7%
3,Fc1ccc([C@@H]2CCNC[C@H]2COc2ccc3c(c2)OCO3)cc1 [paroxetine],70.7%
4,CN[C@H]1CC[C@@H](c2ccc(Cl)c(Cl)c2)c2ccccc21 [sertraline],62.9%
5,COc1ccc(C(CN(C)C)C2(O)CCCCC2)cc1 (centres unmarked) [venlafaxine],67.3%
